Patent US6710066B2, “Photochemotherapeutic method using 5-aminolevulinic acid and other precursors of endogenous porphyrins” (priority 1989, dated 2004)

What was measured:
P. yoelii = test: ALA-induced fluorescence within erythrocytes parasitized by P. yoelii, mice given ALA
[1] = test system: Enterobius vennicularis (pinworm); test: PpIX accumulation on exposure to exogenous ALA, pinworm; conditions: exposed to exogenous ALA
P. chabaudi = test: In vitro photosensitization of P. chabaudi, cells of infected mice incubated with ALA; format: cell-based, mouse
[2] = test system: endometrium (uterine horns); test: Long term photodynamic endometrial ablation in rats; format: in vivo, rat
Method: Rats were divided into 2 groups (6 and 7 rats/group) and their uterine horns were injected with 4 or 8 mg ALA. Example 1, of U.S. application Ser. No. 08/082,113, filed Jun. 21, 1993 (U.S. Pat. No. 5,422,093), was repeated with the exception that all rats were exposed to light and the time from ALA administration to breeding was extended from 10-20 days to 60-70 days. All other procedures were identical to Example 1.
In the groups of rats (n=7) treated with 8 mg ALA 2 of 7 became pregnant in ALA treated uterine horns compared with 7 of 7 pregnancies in the saline treated horns.
In order to show normal uterine histology of a nonpregnant uterine horn contralateral to a pregnant uterine horn one uterine horn was ligated at its distal end prior to breeding. At gestation of 10-15 days nonpregnant uterine horns were harvested and histologically processed. The uterine mucosa was lined with columnar epithelium and there was hypertrophic infolding of endometrial tissue with tortuous glands.

[3] = test system: Dermatophyte (Trichophyton Species)
[4] = test system: endometrial and myometrial samples; test: Fluorescence of endometrial and myometrial samples incubated with ALA; format: cell-based; conditions: 1 mM ALA
Method: The procedures of Example 1 (U.S. Pat. No. 5,422,093) were repeated with 1, 2, 3, 4 and 5 hour incubation periods using a level of 1 mM of ALA.

[5] = very large doses; cited from earlier work
[6] = 250 mg/kg ALA intraperitoneal, heavily parasitized mice
[7] = ALA injected into infected mice

## NCC(=O)CCC(=O)O [ALA, 5-Amino-4-oxopentanoic acid]
P. yoelii; 250 mg/kg ALA IP, 4 hours, excitation 410 nm, emission 635 nm
  protoporphyrin fluorescence of pellet and supernatant after saponin hemolysis: Protoporphyrin fluorescence was detected only in Plasmodial pellet derived from infected mice given ALA
P. yoelii; 250 mg/kg ALA intraperitoneal
  fluorescence microscopy of blood/spleen cells: Red fluorescence developed within parasitized erythrocytes
P. yoelii; [6]
  fluorescence flow cytometry of peripheral blood and spleen erythrocytes: developed red fluorescence
  spectrophotofluorometry of blood and spleen cell pellets: Protoporphyrin was the only fluorophore that was identified
P. yoelii; 250 mg/kg ALA intraperitoneal, tail blood at intervals
  erythrocyte fluorescence by flow cytometer (accumulation of PpIX): Only infected mice given ALA developed fluorescence in their erythrocytes
P. yoelii; [7]
  PpIX accumulation in non-infected erythrocytes and leukocytes: significant concentrations of PpIX did not accumulate
  PpIX accumulation in plasmodia within erythrocytes: accumulated in many of the plasmodia
P. yoelii; exposed to exogenous ALA, Example 10 list
  accumulation of fluorescing concentrations of PpIX: ALA-induced fluorescence
[1]
  accumulation of fluorescing concentrations of PpIX: ALA-induced fluorescence
  accumulation of photosensitizing concentrations of PpIX: ALA-induced photosensitization
P. chabaudi
  PpIX accumulation in non-infected erythrocytes and leukocytes: significant concentrations of PpIX did not accumulate
  PpIX accumulation in plasmodia within erythrocytes: accumulated within many of the plasmodia
[2]; 4 mg ALA, light, breeding 60-70 days after photodynamic treatment, n=6
  implantations in uterine horns treated with ALA: no implantations
[2]; 8 mg ALA, light, breeding 60-70 days after treatment, n=7, saline horns 7 of 7
  rats pregnant in ALA treated uterine horns: 2 of 7
[2]; despite hormonal stimulus of contralateral pregnancy
  endometrial histology after photodynamic treatment: atrophic endometrium
[3]; human, in vivo
  appearance of toe upon completion of treatment: erythematous and somewhat edematous
  subjective response during light exposure: itching, stinging, and a sensation of mild burning
[3]; over the next few months after one treatment
  clinical outcome of fungal infection: all clinical evidence of the fungal infection vanished
[4]
  incubation time of maximum fluorescence in endometrial samples: 4 h
[4]; 1-5 hour incubation
  fluorescence in myometrial samples: No significant fluorescence
[4]; incubated for 2 hours
  fluorescence in endometrial samples: No significant fluorescence
[5]
  effect on motor nerve conduction velocity: transient decrease in motor nerve conduction velocity
